Test results: ChEMBL document CHEMBL1201862, “PubChem BioAssay data set” (2004)
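Test compounds were applied to cells in 96-well plates for 48 hours at 5 doses. GI50 = concentration required for 50% inhibition of growth.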 The source made the active and inactive calls. Cut-off read from the data, not from the text of the source: active = GI50 up to about 1.1 µM and inactive = higher.

Key:
Assay in all cases: NCI anticancer screen, dose series, 48 h
K562 = system: K562
LOX IMVI = system: LOX IMVI
SK-OV-3 = system: SK-OV-3
U-251 = system: U-251
SN12C = system: SN12C
SK-MEL-28 = system: SK-MEL-28
DU-145 = system: DU-145
HT-29 = system: HT-29
OVCAR-5 = system: OVCAR-5
MDA-N = system: MDA-N
OVCAR-3 = system: OVCAR-3
A498 = system: A498
UO-31 = system: UO-31
SR = system: SR
A549 = system: A549
HL-60 = system: HL-60
RPMI-8226 = system: RPMI-8226
MDA-MB-231 = system: MDA-MB-231
OVCAR-4 = system: OVCAR-4

Measured: GI50

CCOC(=O)NC(Nc1cccc(C(F)(F)F)c1)(C(F)(F)F)C(F)(F)F
inactive: K562 > 100 µM | LOX IMVI > 100 µM | SK-OV-3 > 100 µM | U-251 > 100 µM | SN12C > 100 µM | SK-MEL-28 > 100 µM | DU-145 > 100 µM | HT-29 > 100 µM | OVCAR-5 > 100 µM | MDA-N > 100 µM | OVCAR-3 > 100 µM | A498 > 100 µM | UO-31 93.8 µM | SR > 100 µM | A549 > 100 µM | HL-60 > 100 µM | RPMI-8226 > 100 µM | MDA-MB-231 > 100 µM

O=C(CCC(=O)c1ccsc1)c1ccsc1
inactive: LOX IMVI > 100 µM | SK-OV-3 > 100 µM | U-251 > 100 µM | SN12C > 100 µM | SK-MEL-28 > 100 µM | DU-145 > 100 µM | OVCAR-5 > 100 µM | MDA-N > 100 µM | OVCAR-3 > 100 µM | A498 > 100 µM | UO-31 > 100 µM | SR > 100 µM | A549 > 100 µM | HL-60 > 100 µM | RPMI-8226 > 100 µM | MDA-MB-231 > 100 µM | OVCAR-4 > 100 µM

O=[N+]([O-])c1ccc(/C=N/n2c(S)nnc2CCc2nnc(S)n2/N=C/c2ccc([N+](=O)[O-])o2)o1
inactive: K562 28.6 µM | LOX IMVI 20.4 µM | SK-OV-3 > 100 µM | U-251 20 µM | SK-MEL-28 16.6 µM | DU-145 16.2 µM | HT-29 29.3 µM | OVCAR-5 > 100 µM | MDA-N 13.8 µM | OVCAR-3 24.6 µM | A498 > 100 µM | UO-31 29.3 µM | SR 28.3 µM | HL-60 33.6 µM | RPMI-8226 29.4 µM | MDA-MB-231 24.7 µM | OVCAR-4 19.3 µM

N#Cc1c(-c2ccc(Cl)cc2)c(C#N)c(=O)n(NS(=O)(=O)c2ccccc2)c1S
inactive: K562 27.9 µM | LOX IMVI 18 µM | SK-OV-3 87.5 µM | U-251 23.1 µM | SN12C 25.2 µM | DU-145 52.8 µM | OVCAR-5 54.7 µM | MDA-N 25.9 µM | OVCAR-3 23.1 µM | A498 27.7 µM | UO-31 16.2 µM | SR 17 µM | A549 29.4 µM | HL-60 16.6 µM | RPMI-8226 23.9 µM | MDA-MB-231 26.7 µM | OVCAR-4 56.6 µM

c1ccc(N/N=N/c2ccc(-c3nc4ccccc4o3)cc2)nc1
inactive: K562 42.9 µM | LOX IMVI 37.2 µM | SK-OV-3 35.4 µM | U-251 37.9 µM | SN12C 56.6 µM | SK-MEL-28 61.5 µM | DU-145 43.6 µM | HT-29 42.8 µM | OVCAR-5 > 100 µM | MDA-N 68.7 µM | OVCAR-3 27.3 µM | A498 46.3 µM | UO-31 26.6 µM | SR 38.5 µM | A549 46.7 µM | HL-60 13.7 µM | MDA-MB-231 36.6 µM | OVCAR-4 36 µM

CCOC(=O)N/N=C/C1=NN(C(=O)OCC)[S+]([O-])C1C (stereo unspecified)
inactive: K562 > 100 µM | SK-OV-3 > 100 µM | U-251 > 100 µM | SN12C > 100 µM | SK-MEL-28 > 100 µM | DU-145 > 100 µM | HT-29 > 100 µM | OVCAR-5 > 100 µM | MDA-N > 100 µM | OVCAR-3 > 100 µM | A498 > 100 µM | UO-31 > 100 µM | SR > 100 µM | A549 > 100 µM | HL-60 > 100 µM | RPMI-8226 > 100 µM | MDA-MB-231 > 100 µM | OVCAR-4 > 100 µM

Clc1ccc(Cl)c(/N=N\c2cc3c4c(c2)CCN4CCC3)c1
inactive: K562 > 10 µM | LOX IMVI > 10 µM | SK-OV-3 > 10 µM | U-251 > 10 µM | SN12C > 10 µM | SK-MEL-28 > 10 µM | DU-145 > 10 µM | HT-29 > 10 µM | MDA-N > 10 µM | OVCAR-3 > 10 µM | A498 > 10 µM | UO-31 > 10 µM | SR > 10 µM | A549 > 10 µM | HL-60 > 10 µM | RPMI-8226 > 10 µM | MDA-MB-231 > 10 µM | OVCAR-4 > 10 µM

N#Cc1[nH]c(=O)n(-c2ccc(Cl)cc2)c1N
inactive: K562 > 10 µM | LOX IMVI > 10 µM | SK-OV-3 > 10 µM | U-251 > 10 µM | SN12C > 10 µM | SK-MEL-28 > 10 µM | DU-145 > 10 µM | HT-29 > 10 µM | OVCAR-5 > 10 µM | MDA-N > 10 µM | OVCAR-3 > 10 µM | A498 > 10 µM | SR > 10 µM | A549 > 10 µM | HL-60 > 10 µM | RPMI-8226 > 10 µM | MDA-MB-231 > 10 µM | OVCAR-4 > 10 µM
